These are literature values, as cited in patent US20140335365A1, “GYPSUM BOARD HAVING MOLD RESISTANCE” (priority 2007, published 2014).

Read-outs that look alike come from different tables or passages of the source.

On to `O=C1c2ccccc2C(=O)N1SC(F)(Cl)Cl` [fluor-folpet, N-(fluorodichloromethylthio)-phthalimide], for which the water solubility result is recorded as “insoluble”.

Regarding `Cc1ccc(S(=O)(=O)C(I)I)cc1` [diiodomethyl-p-tolylsulfone, 1-[(diiodomethyl)sulfonyl]-4-methylbenzene], the water solubility is 100 ppm.

With `[O-]n1ccccc1=S.[O-]n1ccccc1=S.[Zn+2]` [ZPT, Bis[1-hydroxy-2(1H)pyridinethionato]zinc], the water solubility was 15 ppm.

With `[O-][n+]1ccccc1[S][Na]` [SPT, (2-pyridinethiol-1-oxide) sodium], the water solubility is recorded as 530000 ppm. In addition, the “water solubility” value (Table 1, anti-mold agents used) is given as 530000 ppm.

As to `CCCCNC(=O)OCC#CI` [IPBC, 3-iodo-2-propyl butyl carbamate], the water solubility is on record as 156 ppm. The “water solubility” value (Table 1, anti-mold agents used) was 156 ppm.

For the compound `Oc1cc(Cl)ccc1Oc1ccc(Cl)cc1Cl` [triclosan, 2,4,4′-trichloro-2′-hydroxydiphenylether], the water solubility is given as 10 ppm.

On to `c1ccc2[nH]c(-c3cscn3)nc2c1` [TBZ, 2-(4-thiazolyl)-benzimidazole], for which the water solubility is listed as 30 ppm. Where the note is “Table 1, anti-mold agents used”, the “water solubility” value is 30 ppm.

On to `N#CSCSc1nc2ccccc2s1` [TCMTB, 2-(4-thiocyanomethylthio)benzothiazole], for which the water solubility is 330 ppm.
